# Reference: patent publication US20240173456A1, “THERAPEUTIC COMPOSITIONS FOR WOUND TREATMENT” (GlycoSurf, Inc., priority 2022, published 2024)
# Assays:
# hDFn cells [1] = test: CyQUANT Direct assay, DNA content of living cells; format: cell-based, human; conditions: vs control
# Protocol: (§1) PrestoBlue™ and CyQUANT™ Direct Assay. PrestoBlue™ and CyQuant™ (PBCQ) direct confirmation assay (from ThermoFisher®) for cell viability was used to assess the biocompatibility of hDFn cells in DMEM complete media with varying concentrations of rhamnolipids. Passage 5 hDFn cells were seeded at 11,200 cells/mL density into black wall, clear bottom 96-well tissue culture plates. The cells were placed inside the standing incubator at 37° C. and 5% CO2 until reaching 70-90% confluence. […] The plate layout included blank wells containing DMEM complete media and the corresponding rhamnolipid concentrations. Following 24 hours, 100 μL was removed from each well and replaced with 10 μL of the PrestoBlue reagent. The plates were then incubated for 20 minutes at 37° C. and 5% CO2 prior to being placed in the Biotek® Synergy HT fluorescence microplate reader at 590 nm with a gain value of 35. Afterward, 100 μL of the CyQuant reagent composition was added to all wells and incubated for 60 minutes. The plates were read using the same microplate reader at 528 nm with a gain of 70. The relative fluorescence units (RFU) were produced for all wells, correlating with the metabolic output per unit of DNA.
# (§2) Statistical Analysis. Statistically significant differences were determined using GraphPad Prism. The results of the cellular migration assay were analyzed with a one-way ANOVA and Tukey post hoc evaluation. The PBCQ assay was analyzed using a one-way ANOVA and Tukey post hoc evaluation. For all experiments, a p-value<0.05 was considered statistically significant in this study.
# (§3) The control scaffold, the SEM image of which is shown in FIG. 5A, was not impregnated with rhamnolipids, or had hDFn cells seeded onto it. In particular, the observable porosity is not structurally different in FIG. 5A compared to the other images (FIGS. 5B-5E) depicting impregnated scaffolds without cells. As the percentage of rhamnolipids increased, the porosity of the scaffold remained relatively similar to the control. […] Visually, the hDFn cells appeared to have been able to adhere and colonize onto impregnated scaffolds which could be further explored to better understand the cytocompatibility of rhamnolipids and if their morphology is influenced by the concentration of the surfactant. PrestoBlue™ and CyQUANT™ Direct Assay. The PrestoBlue™ and CyQUANT™ Direct assays were used to determine the cellular compatibility of hDFn cells when in the presence of rhamnolipids. The PrestoBlue™ assay is a resazurin-based solution when upon entering a living cell, the reagent is reduced to resorufin which is red in color and fluorescent. The overall health of the cell can be observed by changes in fluorescence and subsequently absorbance. […] The CyQUANT™ Direct assay is a cell-permeant green nucleic acid stain that is combined with a masking dye reagent. The masking dye stops the staining of non-viable cells or cells with compromised cell membranes, resulting in only the viable cells being stained. The CyQUANT™ Direct assay measures proliferation as well as membrane integrity. The data was evaluated using GraphPad Prism to run a one-way ANOVA.
# [2] = tested on: neonatal human dermal fibroblast (hDFn) cells; test: Cellular migration assay (scratch, mock wound), with or without uranyl nitrate (depleted uranium) exposure; format: cell-based
# Protocol: Preparation of Depleted Uranium Solution. Approximately 0.005 g of uranyl nitrate (UN) crystals, purchased from American Scientific were weighed and solubilized in 40 mL of Dulbecco's modified eagle medium (DMEM) containing 10% fetal bovine serum (FBS) (DMEM complete) from Gibco® to create an initial working stock solution. Uranyl nitrate stock underwent 60 seconds of pipette mixing to confirm proper disintegration prior to vacuum sterilization using a 0.22 μm filter. Molecular weight was used to calculate the appropriate starting molarity before utilizing weight-volume concentrations to obtain the following experimental dilutions: 0.1 μM, 0.2 μM, 1.0 μM, 2.0 μM, 10 μM, 20 μM made from the sterile-filtered stock solution.
# Cell Culture of Neonatal Human Dermal Fibroblasts (hDFn). Passage one neonatal human dermal fibroblast (hDFn) cells were purchased from Cell Applications, Inc. (P1, lot #1734). The hDFn cells were incubated at 37° C., 5% CO2, and passaged using a T-75 tissue culture flask from Corning, completing media changes every 48 hours until 90% confluency was met. Cells were subcultured at a density of 10×10^5 cells/mL, frozen in DMEM containing 10% DMSO, and stored at −80° C. for 24 hours before being placed in liquid nitrogen vapor phase for long-term preservation. The subsequent process was repeated until passage 4 isolates were frozen down.
# Rhamnolipid Solution. About 0.0125 g of rhamnolipids (Rha-C10-C10) from Glycosurf were weighed and diluted in 50 mL of 1× phosphate-buffered saline (PBS) to obtain a 200 μM rhamnolipid stock solution. The solution was heated prior to being vortexed for maximum dissolution and sterilized through a vacuum using a 0.22 μm filter. The molarity of rhamnolipid stock solution was found using actual mass ([…]) and molecular weight to calculate experiment dilutions of 6.25 μM, 50 μM, and 100 μM.
# Cellular Migration Assay. Human neonatal dermal fibroblasts (hDFn) passage 4, were seeded into a T-75 flask at 10×10^5 cells/mL density and grown in a standing incubator at 37° C., 5% CO2. Once 90% confluence was reached, hDFn were subcultured into 12-well plates, and respective UN treatments with or without rhamnolipids were added. After 24 hours, contents were removed, and the monolayer of fibroblasts was scratched vertically using a sterile pipet tip creating the mock wound (FIG. 1). Wells were then washed twice with Hanks' Balanced Salt Solution (HBSS). Respective treatments were added back into wells and cellular migration rates were monitored and imaged over time (0 hours, 12 hours, and 24 hours). Percent closure rates were collected using MATLAB®.
# as §2
# [3] = tested on: Human dermal neonatal fibroblasts (hDFn); test: Rhamnolipid vs. thioglycolipid comparative scratch assay; format: cell-based; conditions: 6.25-50 μM, over 24 hours, particularly at the 4-hour and 8-hour time marks, FIGS. 9, 10A-10B
# Protocol: Rhamnolipid vs. Thioglycolipid Comparative Scratch Assays. Human dermal neonatal fibroblasts (hDFn) were seeded in 3×12-well plates at 10,000 cell/cm^2. Media (Dulbecco's Modified Eagle Medium (DMEM)) was changed every 48 hours. Plates were imaged every 4 hours for 24 hours. Plates were analyzed via MATLAB® and RStudio®.
# hDFn cells [4] = test: PrestoBlue assay, metabolic activity; format: cell-based, human; conditions: vs control
# Protocol: as §1, §2, §3
compound,measurement,setting,value
"CCCCCCC[C@H](CC(=O)O)OC(=O)C[C@@H](CCCCCCC)O[C@@H]1O[C@@H](C)[C@H](O)[C@@H](O)[C@H]1O [rhamnolipids, Rha-C10-C10]",cellular DNA content (RFU),"hDFn cells [1]; 100 μM rhamnolipids, n=12 (FIG. 8B)",statistically significant decrease
same,living DNA content (RFU),"hDFn cells [1]; high concentration of rhamnolipids (50 μM), 24 hours, n=6 (FIG. 7B)",no statistically significant difference
same,living DNA content (RFU),"hDFn cells [1]; high concentration of rhamnolipids (50 μM), n=12 (FIG. 8B)",no statistically significant difference
same,cellular DNA content (RFU),"hDFn cells [1]; low concentration of rhamnolipids (6.25 μM), 24 hours, n=6 (FIG. 7B), Tukey's p<0.001",statistically significant increase
same,living DNA content (RFU),"hDFn cells [1]; low concentration of rhamnolipids (6.25 μM), n=12 (FIG. 8B)",no statistically significant difference
same,mean percent closure,"[2]; 24 hours post-wound, across the different treatments (considered closed)",no statistically significant difference
same,cellular migration (percent closure),"[2]; absence of UN, high dose of rhamnolipids (50 μM), 12 hours post-wound, vs control, Tukey's p=0.001",statistically significant increase
same,mean percent closure,"[2]; absence of UN, low concentration of rhamnolipids (6.25 μM), vs control",no statistically significant difference
same,percent closure (migration rate),"[2]; hDFn exposed to 0.1 μM UN + 50 μM rhamnolipids, 12 hours post-wound, vs control, p-value=0.021",statistically significant increase
same,percent closure (migration rate),"[2]; hDFn exposed to 1.0 μM UN + 6.25 μM rhamnolipids, 12 hours post-wound, p-value=0.012",statistically significant increase
same,percent closure (migration rate),"[2]; hDFn exposed to 1.0 μM UN + 50 μM rhamnolipids, 12 hours post-wound, vs control, p-value<0.001",statistically significant increase
same,percent closure (migration rate),"[2]; hDFn exposed to 10 μM UN + 50 μM rhamnolipids, 12 hours post-wound, vs control, p-value=0.009",statistically significant increase
same,wound healing (percent closure) compared with thioglycolipid compositions,[3],faster healing
same,metabolic activity (RFU),"hDFn cells [4]; 6.25 μM rhamnolipids, 24 hours, n=6 (FIG. 7A), Tukey's p<0.001",statistically significant increase
same,metabolic activity (RFU),"hDFn cells [4]; 6.25 μM rhamnolipids, n=12 (FIG. 8A), Tukey's p<0.001",statistically significant increase
same,metabolic activity (RFU),"hDFn cells [4]; 50 μM rhamnolipids, 24 hours, n=6 (FIG. 7A), Tukey's p<0.001",statistically significant increase
same,metabolic activity (RFU),"hDFn cells [4]; 50 μM rhamnolipids, n=12 (FIG. 8A), Tukey's p<0.001",statistically significant increase
same,metabolic activity (RFU),"hDFn cells [4]; maximum concentration of rhamnolipids (100 μM), n=12 (FIG. 8A)",statistically significant decrease
